Test results as given in patent publication US7655597B1, “Pesticide compositions including polymeric adjuvants” (priority 2009, dated 2010).

Test system: fire ants
Assay: fire ant kill test in insecticide-coated mason jar (time to death of entire population)
Format: in vivo
Details: Table 1
Experimental: In this example a series of commercially available insecticides were tested at various dilution levels and with and without a preferred copolymer, namely the AVAIL® copolymer previously described (a 40%-60% w/w aqueous composition of a saturated sodium salt of a maleic anhydride/itaconic acid copolymer in water). In each set of test runs, the selected insecticide was tested with a population of fire ants in order to determine the time required to kill the entire population.
In particular, in each test run 20 ml of the respective liquid insecticide composition was added to a mason jar and swirled around the inside bottom thereof. The liquid was then poured off and the remainder was allowed to dry on the inner jar surface, creating substantially a monomeric dried layer. The outside neck surface of the jar was then coated in talc, and the open end of the jar was placed into a fire ant nest. The talc coating prevented the aggressive fire ants from climbing the outer surface of the jar. A population of fire ants was thus established in each jar, and the jar was then topped with an apertured mason jar cap. The time to death of all of the fire ants was then recorded.
In each case, the recommended concentration of insecticide was prepared (recorded as “1X”), followed by dilutions with water to create the diluted compositions. Where copolymer was used, the copolymer was added to the insecticide with gentle mixing, at a level of 30 ml per gallon. If desired, lesser amounts of copolymer could be used, e.g., 20 ml per gallon.
In another series of tests, insecticides were tested with various copolymers having different ratios of maleic anhydride and itaconic acid moieties, and at different pH levels. In particular, respective copolymeric compositions were prepared made up of polymaleic acid, a 1:3 weight ratio of maleic anhydride to itaconic acid, a 1:1 weight ratio of maleic anhydride to itaconic acid, a 3:1 weight ratio of maleic anhydride to itaconic acid, and a 7:1 weight ratio of maleic anhydride to itaconic acid. […]

[1] = insecticide at 1X (recommended concentration), time to death of all fire ants

Row | Structure (SMILES) | TIME TO DEATH [1] [min] | TIME TO DEATH (insecticide at 1/3X dilution) [min]
1 | CCOC(=O)CC(SP(=S)(OC)OC)C(=O)OCC (stereo not drawn) [malathion, 2-(dimethoxyphosphinothioylthio) butanedioic acid diethyl ester] | 1 | 
2 | CC1(C)C(C=C(Cl)Cl)C1C(=O)OCc1cccc(Oc2ccccc2)c1 (stereo not drawn) [permethrin, (3-phenoxyphenyl)methyl 3-(2,2-dichloroethenyl)-2,2-dimethyl-cyclopropane-1-carboxylate] | 5 | 5
